Patent EP4603105A1, “PHARMACEUTICAL COMPOSITION CONTAINING CYCLIC COMPOUND HAVING SELECTIVE KRAS INHIBITORY EFFECT AGAINST HRAS AND NRAS” (CHUGAI SEIYAKU KABUSHIKI KAISHA, priority 2022, dated 2024)
pIC50: −log10 of the molar value. Like-named read-outs stand apart in the source and are kept apart here. *1 amine or outer side, *2 acyl side, *3 side chain or, on linkers, in order; H or OH if unused. Where a SMILES comes first, the peptide text is derived from it. Bridges are numbered along the chain shown (N, C = ends). [ ]: non-standard residue; d: D form. The star is where a group is joined. hPhe(3-Cl-4-CF3) = N[C@@H](CCc1ccc(C(F)(F)F)c(Cl)c1)C(=O)O; X22 = C=CCCN([C@@H](Cc1ccc(C(F)(F)F)cc1)C(=O)[*:2])[*:1]; X19 = O=C([C@H](Cc1ccc(C(F)(F)F)cc1)N(CCCF)[*:1])[*:2]; NMeGly(cPent) = CN[C@H](C(=O)O)C1CCCC1; NMeD = CN[C@@H](CC(=O)O)C(=O)O; NMeL = CN[C@@H](CC(C)C)C(=O)O; Morpholide = C1CN(*)CCO1; NMeA = CN[C@@H](C)C(=O)O; Ac5c = NC1(C(=O)O)CCCC1; Aze = O=C(O)[C@@H]1CCN1; Sar = CNCC(=O)O

Columns and labels:
[1] = molecular target: HRAS wild-type protein (Homo sapiens, UniProt P01112); assay: Binding to HRAS by surface plasmon resonance (SPR), KD and KD ratio to KRAS
HRAS wild-type protein, sequence (P01112 whole entry): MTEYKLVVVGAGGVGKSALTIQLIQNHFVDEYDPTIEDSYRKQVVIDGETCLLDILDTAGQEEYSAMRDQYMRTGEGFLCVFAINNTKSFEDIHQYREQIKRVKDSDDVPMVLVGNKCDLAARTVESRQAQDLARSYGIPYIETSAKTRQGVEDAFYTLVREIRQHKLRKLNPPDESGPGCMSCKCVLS
Method in brief: (§1)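 Captured GDP-RAS (~100–300 RU) was exposed to increasing compound concentrations, 75 s per step, in running buffer with 10 µM GDP, 10 mM MgCl2 and 4% DMSO at pH 7.4.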

[2] = system: human lung cancer strain NCI-H441; type: cell-based
Method in brief: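 Step one: dispense the test compound in serial DMSO dilutions. Step three: add the reagent and measure […].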

[3] = molecular target: GDP-bound NRAS wild-type protein (Homo sapiens, UniProt P01111); assay: Binding to NRAS by surface plasmon resonance (SPR), KD and KD ratio to KRAS
GDP-bound NRAS wild-type protein, sequence (P01111 whole entry): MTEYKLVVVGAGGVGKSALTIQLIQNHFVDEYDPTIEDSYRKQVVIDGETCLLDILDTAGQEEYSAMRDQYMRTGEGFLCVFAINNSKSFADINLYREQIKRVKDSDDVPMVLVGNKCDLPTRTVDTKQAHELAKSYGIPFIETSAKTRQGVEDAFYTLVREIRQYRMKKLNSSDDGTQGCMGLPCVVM
Method in brief: as §1

[4] = ratio of KD value for HRAS wild-type protein to KD value for KRAS (SPR)
[5] = ratio of KD value for GDP-bound NRAS wild-type protein to KD value for KRAS (SPR)
[6] = ratio of the KD value with respect to HRAS wild-type protein to the KD value with respect to KRAS
[7] = ratio of the KD value with respect to GDP-bound NRAS wild-type protein to the KD value with respect to KRAS
[8] = ratio of KD for HRAS wild-type protein to KD for KRAS
[9] = ratio of KD for GDP-bound NRAS wild-type protein to KD for KRAS

Compound	pIC50 [2]	HRAS /KRAS [1, 6]	NRAS /KRAS [3, 7]	HRAS /KRAS [1, 8]	NRAS /KRAS [3, 9]	further results
CCC[C@H]1C(=O)N[C@@H]([C@@H](C)CC)C(=O)N2CC[C@H]2C(=O)N(C)[C@H]2C/C=C\CCN(C2=O)[C@@H](Cc2ccc(C(F)(F)F)cc2)C(=O)N(C)CC(=O)N[C@@H](CCc2cc(F)c(C(F)(F)F)c(F)c2)C(=O)N2C[C@H](OCC)C[C@H]2C(=O)NC2(CC(C)(C)C2)C(=O)N(C)[C@@H](C2CCCC2)C(=O)N(C)[C@H](C(=O)N(C)C)CC(=O)N1C [PP1925]	8.01	A (a compound having 10 or more and less than 20 is denoted as A)	A (a compound having 10 or more and less than 20 is denoted as A)	–	–	–
CCC[C@H]1C(=O)N[C@@H]([C@@H](C)CC)C(=O)N(C2CC2)CC(=O)N(C)[C@H]2C/C=C\CCN(C2=O)[C@@H](Cc2ccc(C)cc2)C(=O)N(C)CC(=O)N[C@@H](CCc2ccc(C3CC3)c(C)c2)C(=O)N2C[C@H](OCC)C[C@H]2C(=O)NC2(CC(C)(C)C2)C(=O)N(C)[C@@H](C2CCCC2)C(=O)N(C)[C@H](C(=O)N(C)C)CC(=O)N1C [PP2886]	–	–	–	A (a compound having 10 or more and less than 20 is denoted as A)	A (a compound having 10 or more and less than 20 is denoted as A)	pIC50 ([2]; NCI-H441 cells, 4 days, CellTiter-Glo, read-out: NCl-H441 IC50): 6.95
CC[C@H](C)[C@@H]1NC(=O)[C@H](CC(C)C)N(C)C(=O)C[C@@H](C(=O)N2CCOCC2)N(C)C(=O)[C@H](C2CCCC2)N(C)C(=O)C2(CCCC2)NC(=O)[C@@H]2CCCN2C(=O)[C@H](CCc2cc(F)c(C(F)(F)F)c(F)c2)NC(=O)CN(C)C(=O)[C@H](Cc2ccc(C(F)(F)F)cc2)N2CCCCC[C@@H](C2=O)N(C)C(=O)CN(C)C1=O [PP0490]	7.30	B (a compound having 3 or more and less than 10 is denoted as B)	B (a compound having 3 or more and less than 10 is denoted as B)	–	–	–
CC[C@H](C)[C@@H]1NC(=O)[C@H](C2CCC2)N(C)C(=O)C[C@@H](C(=O)N(C)CC)N(C)C(=O)[C@H](C2CCCC2)N(C)C(=O)C2(CC(C)(C)C2)NC(=O)[C@@H]2C[C@H](C)CN2C(=O)[C@H](CCc2ccc(C(F)(F)F)c(OC)c2)NC(=O)CN(C)C(=O)[C@H](Cc2ccc(C(F)(F)F)cc2)N2CC/C=C\C[C@@H](C2=O)N(C)C(=O)CN(C)C1=O [PP2009]	7.71	A (a compound having 10 or more and less than 20 is denoted as A)	A (a compound having 10 or more and less than 20 is denoted as A)	–	–	–
CCC[C@H]1C(=O)N[C@@H]([C@@H](C)CC)C(=O)N(C)CC(=O)N(C)[C@H]2C/C=C\CCN(C2=O)[C@@H](Cc2ccc(C(F)(F)F)cc2)C(=O)N(C)CC(=O)N[C@@H](CCc2ccc(C(F)(F)F)c(OC)c2)C(=O)N2CC[C@H]2C(=O)NC2(CC(C)(C)C2)C(=O)N(C)[C@@H](C(CC)CC)C(=O)N(C)[C@H](C(=O)N(C)C)CC(=O)N1C [PP2936]	6.73	–	–	A (a compound having 10 or more and less than 20 is denoted as A)	AA (a compound having 20 or more is denoted as AA)	–
CC[C@H](C)[C@@H]1NC(=O)[C@H](COC)N(C)C(=O)C[C@@H](C(=O)N(C)C)N(C)C(=O)[C@H](C2CCCC2)N(C)C(=O)C2(CC(C)(C)C2)NC(=O)[C@@H]2CCCCN2C(=O)[C@H](CCc2cc(F)c(C(F)(F)F)c(F)c2)NC(=O)CN(C)C(=O)[C@H](Cc2ccc(C(F)(F)F)cc2)N2CC/C=C\C[C@@H](C2=O)N(C)C(=O)CN(C)C1=O [PP2907]	7.33	–	–	A (a compound having 10 or more and less than 20 is denoted as A)	AA (a compound having 20 or more is denoted as AA)	–
CCCN(C)C(=O)[C@@H]1CC(=O)N(C)[C@@H](CC(C)C)C(=O)N[C@@H]([C@@H](C)CC)C(=O)N(C)CC(=O)N(C)[C@H]2C/C=C\CCN(C2=O)[C@@H](Cc2ccc(C(F)(F)F)cc2)C(=O)N(C)CC(=O)N[C@@H](CCc2cc(F)c(C(F)(F)F)c(F)c2)C(=O)N2C[C@H](OCC)C[C@H]2C(=O)NC2(CCC2)C(=O)N(C)[C@@H](C2CCCC2)C(=O)N1C [PP1387]	7.82	–	–	–	–	HRAS /KRAS ([1]; ratio of KD with respect to HRAS wild-type protein to KD with respect to KRAS): B (a compound having 3 or more and less than 10 is denoted as B); NRAS /KRAS ([3]; ratio of KD with respect to GDP-bound NRAS wild-type protein to KD with respect to KRAS): A (a compound having 10 or more and less than 20 is denoted as A)

More lines, in order of rising pIC50 [2], values ahead:

pIC50 [2]	Compound	HRAS /KRAS [1, 6]	NRAS /KRAS [3, 7]	HRAS /KRAS [1, 8]	NRAS /KRAS [3, 9]	further results
8.16	CC[C@H](C)[C@@H]1NC(=O)[C@H](CC2CC2)N(C)C(=O)C[C@@H](C(=O)N(C)C)N(C)C(=O)[C@H](C2CCCC2)N(C)C(=O)C2(CCC2)NC(=O)[C@@H]2CC(F)(F)CN2C(=O)[C@H](CCc2cc(F)c(C(F)(F)F)c(F)c2)NC(=O)CN(C)C(=O)[C@H](Cc2ccc(C(F)(F)F)cc2)N2CC/C=C\C[C@@H](C2=O)N(C)C(=O)CN(C)C1=O [PP1500]	–	–	–	–	HRAS /KRAS [1, 4]: A (a compound having 10 or more and less than 20 is denoted as A); NRAS /KRAS [3, 5]: A (a compound having 10 or more and less than 20 is denoted as A)
8.32	CC[C@H](C)[C@@H]1NC(=O)[C@H](CC(C)C)N(C)C(=O)C[C@@H](C(=O)N2CCOCC2)N(C)C(=O)[C@H](C2CCCC2)N(C)C(=O)C2(CCCC2)NC(=O)[C@@H]2CCCN2C(=O)[C@H](CCc2ccc(C(F)(F)F)c(Cl)c2)NC(=O)CN(C)C(=O)[C@H](Cc2ccc(C(F)(F)F)cc2)N(CCCF)C(=O)CN(C)C(=O)CN(C)C1=O [PP0524] ([NMeL]I[Sar][Sar][X19][Sar][hPhe(3-Cl-4-CF3)]P[Ac5c][NMeGly(cPent)][NMeD]-Morpholide; lactam N-11)	C (A compound having a KD ratio of 0.1 or more and less than 3 is denoted as C)	B (a compound having 3 or more and less than 10 is denoted as B)	–	–	–
8.35	CCO[C@@H]1C[C@H]2C(=O)NC3(CC(C)(C)C3)C(=O)N(C)[C@@H](C3CCCC3)C(=O)N(C)[C@H](CC)CC(=O)N(C)[C@@H](CC)C(=O)N[C@@H]([C@@H](C)CC)C(=O)N(C)CC(=O)N(C)[C@H]3C/C=C\CCN(C3=O)[C@@H](Cc3ccc(C(F)(F)F)cc3)C(=O)N(C)CC(=O)N[C@@H](CCc3cc(F)c(C(F)(F)F)c(F)c3)C(=O)N2C1 [PP1623]	–	–	–	–	HRAS /KRAS [1, 4]: A (a compound having 10 or more and less than 20 is denoted as A); NRAS /KRAS [3, 5]: A (a compound having 10 or more and less than 20 is denoted as A)
8.49	CC[C@H](C)[C@@H]1NC(=O)[C@H](CC(C)C)N(C)C(=O)C[C@@H](C(=O)N2CCOCC2)N(C)C(=O)[C@H](C2CCCC2)N(C)C(=O)C2(CCC2)NC(=O)[C@@H]2CC(F)(F)CN2C(=O)[C@H](CCc2cc(F)c(C(F)(F)F)c(F)c2)NC(=O)CN(C)C(=O)[C@H](Cc2ccc(C(F)(F)F)cc2)N2CCCC[C@@H](C2=O)N(C)C(=O)CN(C)C1=O [PP0575]	B (a compound having 3 or more and less than 10 is denoted as B)	B (a compound having 3 or more and less than 10 is denoted as B)	–	–	–
8.70	C=CCCN1C(=O)[C@@H]2CCN2C(=O)[C@H](C)N(C)C(=O)[C@H]([C@@H](C)CC)NC(=O)[C@H](CC(C)C)N(C)C(=O)C[C@@H](C(=O)N2CCOCC2)N(C)C(=O)[C@H](C2CCCC2)N(C)C(=O)C2(CCCC2)NC(=O)[C@@H]2CCCN2C(=O)[C@H](CCc2ccc(C(F)(F)F)c(Cl)c2)NC(=O)CN(C)C(=O)[C@@H]1Cc1ccc(C(F)(F)F)cc1 [PP0115] ([NMeL]I[NMeA][Aze][X22][Sar][hPhe(3-Cl-4-CF3)]P[Ac5c][NMeGly(cPent)][NMeD]-Morpholide; lactam N-11)	–	–	C (A compound having a KD ratio of 0.1 or more and less than 3 is denoted as C)	C (A compound having a KD ratio of 0.1 or more and less than 3 is denoted as C)	–
